The text below walks through data of publication PMC8261488, “Contraceptive progestins with androgenic properties stimulate breast epithelial cell proliferation” (EMBO Molecular Medicine, 2021).

One data set concerns Rankl. Put plainly: Rankl transcript levels by RT-PCR in mouse mammary organoids stimulated ex vivo. Type of data set: cell-based.
For the next data set, the system named is KLK3. Put plainly: KLK3 mRNA in xenografted HBECs by RT-PCR with human-specific primers. As to conditions: 3 weeks of treatment (Fig 5H). Type of data set: in vivo. The text has this: Consistent with AR and PR sharing a common hormone response element (Claessens et al, 1996), KLK3 was induced upon progestin stimulation. […] This is in agreement with previous findings that KLK3 expression is under the control of both androgens and progestins in T47D cells (Zarghami et al, 1997).
(§1) Next, we sought for a readout of in vivo cell proliferation different from radiance. […] Given that MKI67 expression could replace the luciferase measurements as a readout, we used a modified experimental setup for a second round of experiments. We derived HBECs from viably frozen mammoplasty samples (Appendix Table S3) and engrafted them to different mammary glands of NSG females without viral infection. Four months later, the 24 recipient females, each engrafted with 5 different mammoplasties received pellets containing either vehicle, progesterone, or 1 of 6 progestins for 21 days. At sacrifice, xenografted glands were histologically sectioned and cell proliferation was quantified using co‐IF with anti‐MKI67 and anti‐hECAD antibodies. For one of the mammoplasties, we were able to obtain measurements for all experimental conditions (Fig 5I). […] For the remaining mammoplasties, between 3 and 8 different experimental conditions were successfully quantified (Appendix Table S4). […] CPA (P < 0.0001) decreased proliferation, whereas CMA and DSP had no effect (Fig 5K). As AR signaling increases AR protein levels, we performed co‐IF for AR and hECAD as another means to assess AR signaling activity.
Human breast microstructures and mouse organoids were homogenized in Trizol (Invitrogen). Aqueous phase containing RNA was chloroform extracted and processed with miRNeasy extraction kit (Qiagen). cDNA was synthesized using random p(dN)6 primers (Roche) and MMLV reverse transcriptase (Invitrogen). SYBR Green PCR Core Reagent System (Qiagen) was used for semi‐quantitative real time (RT‐PCR) using the following primers.

The test system of data set [1] is HBECs. Put plainly: In vivo growth of HBEC xenografts treated with LNG with or without enzalutamide. Details: species or system human. Particulars: 3 PDXs, radiance.
Description: Mice were anesthetized by intraperitoneal injection with 10 mg/kg xylazine and 90 mg/kg ketamine (Graeub) and injected intraductally with 10 μl cell suspension per gland. […] After 3–10 weeks, when bioluminescence from individual glands reached 10^7 total flux (p/s/cm2/sr), animals were assigned to different treatment groups and hormone pellets implanted subcutaneously. Enzalutamide (Selleckchem, Catalog No. S1250) dissolved in 15% DMSO in PEG300 was injected intraperitoneally 3 times/week at 30 mg/kg.
In another data set the test system is women. As to conditions: cited from earlier work.
Data set [2] deals with HBECs. Put plainly: MKI67/Ki67 expression in xenografted HBECs. Format: in vivo, human. Particulars: 21 days pellets; for cell proliferation (KI67 and hECAD double+ cells), overall analysis: HBECs from 11 different patients; for cell proliferation (KI67 and hECAD double+ cells): one mammoplasty (M310).
Text: as §1
(§2) Tissues were fixed for 2 h at room temperature in 4% paraformaldehyde and paraffin‐embedded. Dewaxed and rehydrated paraffin sections were pretreated in 10 mM Na citrate (pH 6.0) at 95° for 20 min. Blocking was performed with 1% BSA for 60 min. Primary antibodies used were as follows: Ki67 (rabbit α‐Ki67, clone Sp6, Spring Amsbio, dilution 1:200), ER (rabbit α‐ER, clone Sp1, Zytomed RTU), PR (rabbit α‐PR, clone 1E2, Ventana RTU), AR (rabbit α‐AR, clone SP107, Thermo Fisher, diluted 1:200), CK7 (rabbit α‐CK7, clone Sp52, Abcam, diluted 1:500), CK19 (mouse KS19.2 (Z105.6), American Research Products Inc. (diluted 1:50), and mouse α‐ECAD (clone G‐10, sc‐8426, diluted 1:100). For IHC, chromogenic revelation was performed with ChromoMap DAB kit (Roche Diagnostics, Switzerland) and sections were counterstained with Mayer’s hematoxylin. For fluorescence microscopy, nuclei were counterstained with DAPI (Sigma). IHC for ER, PR, and AR was performed on Discovery Ventana ULTRA (44). IHC images were acquired on Leica DM 2000 with Leica DFC450 C camera. IF images were acquired on Zeiss LSM700 confocal microscope. Slides were scanned with Olympus VS120‐L100 slide scanner with 20×/0.75 objective and Pike F505 C Color camera. Images were loaded into QuPath using the BioFormats extension (Bankhead et al, 2017).
In general terms: A xenograft is tissue or cells of one species grown in another, often human tumour cells in immunodeficient mice.

For data set [3], the system named is AR. Details: method as in earlier work. Particulars: various assays, ref Fuhrmann et al, 1995, Muhn et al, Bouchard, 2005, Mishell, 2008, Schneider et al, 2009, Africander et al, 2011, Louw‐du Toit et al, 2017; cited from earlier work.
Data set [4] concerns endogenous hormone levels in mice. In words: Endogenous steroid hormone plasma levels in treated host mice by LC-MS. Format: in vivo, mouse. As to conditions: xenografted NSG females with pellets. The text has this: Next, we assessed whether progesterone and progestins differentially affected endogenous hormone levels in mice. Plasma 17‐β‐estradiol levels were not affected by any of the treatments (Fig 4H). […] Plasma testosterone levels were not altered by any treatment with the exception of DSP, which decreased them (Fig 4H). Thus, prolonged exposures to progestins differentially affect endogenous progesterone plasma levels and DSP decreases testosterone plasma levels in host mice.

Another data set relates to Wnt4. In words: Wnt4 transcript levels by RT-PCR in mouse mammary organoids stimulated ex vivo. Format: cell-based.
Data set [5] relates to HBECs. Put plainly: MKI67/Ki67 expression in xenografted HBECs. Format: in vivo, human. As to conditions: 3 weeks of treatment, at endpoint.
Data set [6] relates to AR. Put plainly: In vivo growth of LNG-treated HBEC xenografts transduced with shAR or sh scramble. Details: species or system human. Particulars: within 60 days. The text has this:
To further test the requirement for AR in the context of progestin‐driven proliferation, we took a genetic approach and down modulated AR expression in freshly isolated HBECs using a GFP‐luciferase2‐shAR or GFP‐luciferase2‐sh scramble expressing lentivirus. […] Double IF with anti‐GFP and anti‐AR antibodies and analysis by image quantification confirmed the down regulation of AR protein levels in the shAR infected cells identified based on GFP co‐expression (Fig 7E and F).

Data set [7] concerns HBECs. In words: In vivo growth of intraductal HBEC xenografts measured by radiance.
Text: To compare the effects of progesterone and different progestins on HBECs in vivo, we infected single cell suspensions obtained from fresh reduction mammoplasty specimens with GFP‐luciferase2‐expressing lentiviruses. The infected cell mixture was grafted intraductally to up to 5 glands of as many recipients as possible. The engraftment and growth of the xenografted cells were monitored weekly by in vivo imaging. When radiance reached > 10E07 on average per mammary gland, 60‐day‐release pellets were implanted subcutaneously, usually within 3–10 weeks after cell injection. At sacrifice, blood was collected and plasma levels of the administered compounds as well as endogenous steroid hormones were determined by liquid chromatography‐mass spectrometry (LC‐MS) (Laszlo et al, 2019).
Next, the in vivo growth of HBEC xenografts stimulated with progesterone or different progestins was analyzed. […] In addition, the fold change radiance of treated versus untreated samples at endpoint was calculated (Fig 5A–C).
(§3) Mice were anesthetized by intraperitoneal injection with 10 mg/kg xylazine and 90 mg/kg ketamine (Graeub) and injected intraductally with 10 μl cell suspension per gland. Bioluminescence imaging was performed as described (Sflomos et al, 2016). After 3–10 weeks, when bioluminescence from individual glands reached 10^7 total flux (p/s/cm2/sr), animals were assigned to different treatment groups and hormone pellets implanted subcutaneously. Enzalutamide (Selleckchem, Catalog No. S1250) dissolved in 15% DMSO in PEG300 was injected intraperitoneally 3 times/week at 30 mg/kg.
Pellets were prepared by mixing the required amount of part A, MP3745/E81949 and part B, MP3744/E81950 of low consistency silicon elastomer (MED‐4011) and hormone powder to homogeneity. Mix was transferred to a syringe and incubated at 37°C overnight. The silicon‐hormone mass was removed from the syringe and cut to pieces, as described (Duss et al, 2007). The original protocol was adapted for different doses as described below.
The next data set concerns human breast epithelium. As to conditions: female, mouse, in vivo, 8 months.
Data set [8] has as its system AR. In words: Percentage of AR+ cells in xenografted HBECs by co-IF for AR and hECAD. Format: in vivo, human. Particulars: 21 days pellets, HBECs from 11 different patients.
Text: as §1, §2

Data set [9] deals with human breast tissue microstructures (EpCAM+ cells). In words: RNA sequencing of EpCAM+ cells from human breast tissue microstructures stimulated ex vivo. As to conditions: 14–18 h exposure, n = 3. Type of data set: cell-based. The text has this: Having ascertained with mammary tissue from inbred mice that androgenic and anti‐androgenic progestins have different effects on the expression of important PR target genes, we set out to assess the transcriptional response to PR signaling in the human breast epithelium. In view of our goal to perform in vivo experiments with the natural ligand progesterone, we compared the effects of progesterone to those of its stable analog R5020 which is commonly used for in vitro experiments on breast epithelial cells. For this, we used an ex vivo approach with human breast tissue similar to the mouse organoid technique used above that maintains hormone responsiveness (Tanos et al, 2013; Sflomos et al, 2015). In brief, 3 fresh mammoplasty tissue from women with follicular phase progesterone levels were cut into 1 mm^3 pieces and aliquoted for digestion with collagenase and concomitant exposure to either vehicle, R5020, or progesterone for 14–18 h. Tissue microstructures that contain epithelial cells, immune cells, and fibroblasts in varying proportions were recovered. To reduce interpatient variation as far as it relates to different ratios of various cell types, at the end of the treatment, the tissue microstructures were dissociated to single cells and enriched for epithelial cells by FACS sorting with antibodies against the epithelial cell surface marker EpCAM (Fig 2A). The EpCAM^+ cells were processed for RNA sequencing. […] Progesterone affected expression levels of 65 genes, whereas R5020 affected 112 genes, including RANKL (adj.P < 0.05) (Appendix Fig S2A). More than 90% of the progesterone‐induced gene expression changes were induced by R5020 (Fig 2C). […] R5020 induced higher‐fold changes as indicated by the estimated slope of the curve being > 1 (P < 0.0001). […]
All experiments conformed to the principles set out in the WMA Declaration of Helsinki and the Department of Health and Human Services Belmont Report. […] Human tissue samples were mechanically and enzymatically dissociated, single cells were prepared, counted, and spin infected using Lenti‐ONE CMV‐GFP(2A)Luc2 WPRE VSV, V621004001, or pR980 Luc2GFP (GEGTECH) at a multiplicity of infection of 1 at 2.500 rpm for 3 h at room temperature in 500 μl of serum‐free medium. […]
RNAseq libraries were prepared using Truseq Stranded RNA producing single‐end reads of 100 bp and sequenced on Illumina Hiseq 2500 instrument. […]
Sequencing reads were quality controlled using FastQC (v0.11.8) (Wingett & Andrews, 2018). Mouse raw reads were aligned to the mouse genome (mm9) and human raw reads to the human genome (hg19) using TopHat (v2.0.11) (Kim et al, 2013). […]

For data set [10] the following is noted: NSG, mouse, in vivo.
Description: At sacrifice, blood was collected and plasma levels of the administered compounds as well as endogenous steroid hormones were determined by liquid chromatography‐mass spectrometry (LC‐MS) (Laszlo et al, 2019).
Plasma steroid concentrations were measured by LC–MS High Resolution (Q‐Executive, Thermo Fisher Scientific) for testosterone, progesterone, and 17β‐estradiol as described in (Cagnet et al, 2018) and for progestins as described in (Laszlo et al, 2019).
Where [11] appears, read: BalbC females, 6 h of stimulation.
[12] abbreviates: BalbC-derived organoids, 24 h of stimulation.
[13] abbreviates: 60 days of treatment, subcutaneous pellets.

Description for human breast epithelium: All the engrafted glands were processed for histological analysis and H&E stained.
as §3

On to `C#C[C@]1(O)CC[C@H]2[C@@H]3CCC4=CC(=O)CC[C@@H]4[C@H]3CC[C@@]21CC` [LNG, levonorgestrel], for which, in the data set on Rankl (setting [11]), the “Rankl transcript levels over vehicle-treated control” value is reported as 27.7 fold. This compound had a Rankl transcript induction in the data set on Rankl (setting [12]) of 253.9 fold. Further, the Rankl transcript induction in the data set on Rankl (C57Bl/6 mice, 6 h, 20 nM) is 21.6 fold. The KLK3 transcript expression result with KLK3 was “increased”. The “proliferation rates of PDXs upon LNG exposure” value in the data set with HBECs [1] is “increased the proliferation rates in 2 of 3 PDXs”. For the same compound, the breast cancer risk result with women (women taking androgenic progestins, ref Rossouw et al, 2002) is reported as “elevated breast cancer risk”. In the data set with women (women, ref Hunter et al, 2010), the “RR of breast cancer” value was 3.05 and the “lobular breast cancer risk compared to the general population” value is given as 1.45. For the same compound, the “RR for ductal breast cancer” value in the data set with women (women, ref Soini et al, 2016) is on record as 1.20. Further, in the data set with HBECs [2], the “cell proliferation (KI67 and hECAD double+ cells), overall analysis” value is reported as “increased”; the “cell proliferation (KI67 and hECAD double+ cells)” value is recorded as “significantly increased”. In addition, in the data set with AR [3], the “androgenic / anti-androgenic activity” value is recorded as “androgenic activity”. The “endogenous progesterone plasma levels (estrous cycle-related variation)” value in data set [4] is given as “did not affect”. Moreover, in the data set on Wnt4 (setting [11]), the “Wnt4 transcript levels over vehicle-treated control” value came out at 4.8 fold. Besides, the Wnt4 transcript induction in the data set with Wnt4 (setting [12]) is 36.3 fold. Besides, in the data set with Wnt4 (C57Bl/6 mice, 6 h, 20 nM), the Wnt4 transcript induction turned out to be 4.3 fold. Also, in the data set on HBECs [5], the “MKI67 expression at mRNA level” value is listed as “increased” and the “MKI67 expression at protein level” value is given as “increased”. For the same compound, the “reduction of LNG-induced radiance by down regulation of AR expression (shAR)” value with AR [6] turned out to be 22%. Further, the “cell proliferation by radiance measurements” value with HBECs [7] (3 weeks of treatment, mammoplasty M354) was “stimulated cell proliferation”. In the data set on HBECs [7] (setting [13]), the “growth (course of radiance) of engrafted HBECs versus control” value is listed as “increased growth”. Besides, the “morphologic changes in xenografts (H&E)” value with human breast epithelium is 3 or 4 grafts showed diffuse and in some cases marked acinar proliferation.

Turning to `CC(=O)[C@H]1CC[C@H]2[C@@H]3CCC4=CC(=O)CC[C@]4(C)[C@H]3CC[C@]12C` [progesterone], the “percentage of AR+ cells (AR index)” value in the data set with AR [8] is “decreased”. Also, in the data set on women, the “association with breast cancer risk” value is “not associated with breast cancer risk”. In addition, in the data set with HBECs [2], the “cell proliferation (KI67 and hECAD double+ cells), overall analysis” value is reported as “increased”; the “cell proliferation (KI67 and hECAD double+ cells)” value is on record as “significantly increased”. Also, in data set [9], the “RANKL expression (variant stabilized gene expression values)” value is on record as “increased expression” and the “WNT4 expression (variant stabilized gene expression values)” value is listed as “increased expression”. In the data set with HBECs [7] (setting [13]), the “growth (course of radiance) of engrafted HBECs versus control” value was “increased” and the “relative radiance at endpoint over control (FC)” value was found to be 1.3 fold. The “plasma progesterone relative to average levels in control mice” value in data set [10] is reported as 4.9 times.
